Data published in US20160166578A1, “METHOD FOR TREATING TYPE I AND TYPE II DIABETES” (PRISM Phama Ltd., priority 2012, published 2016).

Assays:
[1] = system: Wnt signaling pathway; experiment: Reporter gene assay (SuperTOPFlash luciferase, STF reporter cell line); format: cell-based; conditions: Homo sapiens; at a concentration of 1 μM; Hek-293 STF reporter cells, LiCl stimulation, 24 hours; read-out: inhibitory activity
Procedure: Screening for inhibitory action of the Wnt signaling pathway was carried out according to the following procedure using an STF reporter cell line (human embryonic kidney cell line Hek-293 stably transfected with the firefly luciferase gene under the control of eight tandem repeats of the SuperTOPFlash reporter element; Cell 116:883-895, 2004).
Growth Medium: Dulbecco's Modified Eagle Medium (DMEM), 10% FBS, Pen-Strep, supplemented with 400 µg/ml G418 antibiotic to maintain selection of SuperTOPFlash driven luciferase gene.
On the day prior to assay, cells were split into a white opaque 96-well plate at 20,000 cells per well in 200 microliters of complete growth medium. The plate was incubated overnight at 37° C., 5% CO2 to allow the cells to attach to the surface.
The next day, the inhibitors were prepared to be tested in complete growth medium, without G418, at 2× the desired final concentration (all conditions are done in duplicate). The existing medium was carefully pipetted from each well using a multiple pipettor. 50 microliters of fresh growth medium (without G148) containing the inhibitor (Compound A) was added to each well. […]
After 24 hours, 100 microliters of BrightGlo reagent (Promega, Madison, Wis.) was added to each well. […] The plate was read using a Packard TopCount (PerkinElmer, Inc.).

[2] = Primate study in aged hyperglycemic monkeys (c-peptide, insulin, HbA1c); format: in vivo, Macaca fascicularis; conditions: 8 mg/Kg/Day continuous infusion i.p., 84 days
Procedure: Animals: aged Macaca fascicularis (21 to 27 years old) monkeys that have hyperglycemia, N=3.
Administration: Compound A (8 mg/Kg/Day) administrated by continuous infusion by i.p. from day 152 to 236 (84 days). Biochemical tests: c-peptide, insulin, and HbA1c levels were measured every week.
C-peptide, a byproduct of insulin production that is elevated in hyperglycemia, was measured using ELECSYS c-peptide assay (Roche Diagnostics, Hoffmann-La Roche Ltd.) with electrochemiluminescence assay (ECLIA) readout.
Insulin levels were measured using the E test II IRI, EIA method (TOSOH Corp., Tokyo). Insulin levels are elevated in hyperglycemia.
HbA1c or glycated hemoglobin (hemoglobin A1c) was measured to identify the average glycated hemoglobin, as a measure of plasma glucose concentration, over the previous months prior to the measurement. HbA1c levels are elevated in hyperglycemia. HbA1c was measured using the Nordia N HbA1c assay kit, enzyme method (Sekisui Medical Co., Ltd., Japan).

[3] = Blood glucose levels in human clinical trial (patients with cancer and type II diabetes); format: in vivo; conditions: for blood glucose levels: 7 days continuous IV infusion, one week on and one week off
Procedure: Patients with cancer and type II diabetes were enrolled in a clinical trial (Safety and Efficacy Study in Subjects With Advanced Solid). The efficacy of Compound A for the treatment of diabetes was investigated by measurement of the blood glucose level of the patients. Conditions of patients enrolled in this study are as follows:
(Patient 101), with sigmoid colon cancer and diabetes. Compound A was administered at 40 mg/m^2/day, and Metformin Hydrochloride
(Patient 1103), with colon cancer and diabetes. Compound A was administered at 905 mg/m^2/day, in addition patient was treated with pioglitazone hydrochloride (Actos) and Metformin Hydrochloride.
Compound A administration was 7 days continuous IV infusion. The cycle of administration is one week on and one week off.
In addition to already prescribed drugs (pioglitazone hydrochloride or Metformin Hydrochloride) as basic treatment, Compound A with a defined dose for each patient was intravenously administrated for 7 continuous days followed by a 7-day rest period. This 14 days period with 7-day infusion period and 7-day rest period is defined as one cycle. Basic treatment for diabetes was continuously performed during this period. During the administration period (first, fifth and eighth day of each cycle) or after the administration, blood glucose levels were measured.

Q: What does the source list for C[C@H]1[C@H]2N(C(=O)CN(C)N2C(=O)NCc2ccccc2)[C@@H](Cc2ccc(OP(=O)(O)O)cc2)C(=O)N1Cc1cccc2cccnc12 [Compound A, 4-(((6S,9S,9aS)-1-(benzylcarbamoyl)-2,9-dimethyl-4,7-dioxo-8-(quinolin-8-ylmethyl)octahydro-1H-pyrazino[2,1-c][1,2,4]triazin-6-yl)methyl)phenyl dihydrogen phosphate]?
A: inhibition at 1 µM [1]: > 50%; c-peptide levels ([2]; FIG. 3): c-peptide levels fall over time; insulin levels ([2]; FIG. 4): insulin levels fall over time; HbA1c levels (ratio of mmol HbA1c to mol hemoglobin) ([2]; FIG. 5): HbA1c levels fall over time; blood glucose levels ([3]; Patient 101, 40 mg/m^2/day, with Metformin Hydrochloride, by the end of every cycle (FIG. 1)): blood glucose levels are reduced; blood glucose levels ([3]; Patient 1103, 905 mg/m^2/day, with pioglitazone hydrochloride and Metformin Hydrochloride, by the end of every cycle (FIG. 2)): blood glucose levels are reduced; blood glucose level of patients with type II diabetes not adequately controlled by known drugs ([3]; concomitant use with known drugs for type II diabetes): significantly decreased; adverse effects of concomitant use ([3]; patients with type II diabetes, concomitant with known drugs for diabetes): No adverse effects
